Test results taken from US8491891B2, “Human beta-glucuronidase mutants with elevated enzymatic activity under physiological conditions and method for identifying such” (Academia Sinica, priority 2008, dated 2013).

Legend:
[1] = system: EJ human bladder carcinoma cells; assay: Sensitivity of EJ cells to CPT-11, SN-38, SN-38G (3H-thymidine incorporation); details: read-out: IC50 (cytotoxicity), 24 h exposure, pH not stated
EJ/mβG tumor xenografts = assay: Anti-tumor effect of CPT-11 on EJ/mβG xenografts; format: in vivo, Beige-SCID mice; details: EJ/mβG tumors, dose of 10 mg/kg, i.v. on two consecutive days
Procedure: (§1) Three to four month old Beige-SCID female mice were used in this study. The mice were maintained under SPF conditions and were fed a standard laboratory diet with free access to food and water, under artificial circadian rhythm. EJ or EJ/mβG cells were injected into the mice subcutaneously in their right flank to form tumor xenografts.

EJ tumor xenografts = assay: Anti-tumor effect of CPT-11 on EJ xenografts; format: in vivo, Beige-SCID mice; details: EJ tumors, dose of 10 mg/kg, i.v. on two consecutive days
Procedure: as §1

[2] = Intratumoral concentrations of CPT-11, SN-38 and SN-38G after CPT-11 treatment (SPE-HPLC)
Procedure: Tumors were collected 2, 8 and 24 h after CPT treatment, immediately dispersed in ice-cold acidic methanol (methanol: water: perchloric acid=20:20:1), and homogenized 60 sec on an Ultraturax tissue homogenizer at 20,000 rpm. The samples were clarified by centrifugation at 15,000 g for 5 min at 4° C. Supernatants were diluted with 0.1 M KH2PO4 and then separated by SPE-HPLC on a μBondapack column with 27% acetonitrile in 0.1 M potassium phosphate buffer pH=2.6. […] These three analytes were quantified by comparison with standard curves generated with analyte concentrations ranging from 2.0 pg to 200 ng.

EJ/mβG cells = assay: Sensitivity of EJ/mβG cells to CPT-11, SN-38, SN-38G (3H-thymidine incorporation); details: read-out: IC50 (cytotoxicity); EJ/mβG cells, 24 h exposure, pH not stated
[3] = Serum concentrations of CPT-11, SN-38 and SN-38G after CPT-11 administration
[4] = Beta-glucuronidase activity of fusion proteins at pH 7.0; format: biochemical; details: pH 7.0, 0.5 mM substrate, 30 minutes, 37° C.
Procedure: Next, the beta-glucuronidase activity of the fusion proteins was measured by adding 0.5 mM 4-methylumbelliferyl β-D-glucuronide in a beta-glucuronidase reaction buffer (50 mM Bis-Tris, 50 mM triethanol amine, 100 mM acetic acid, 100 ng/ml bovine serum albumin, pH 7.0) for 30 minutes at 37° C. The reaction was terminated by adding an equal volume of stop buffer (1 M glycine, 0.5 M sodium bicarbonate, pH 11). The fluorescence of 4-MU was measured at excitation/emission wavelengths of 355/460 nm in a Gemini EM microplate spectrofluorometer (Molecular Device, Sunnyvale, Calif.). […] See also FIG. 9.

[5] = system: EJ human bladder cancer cells; assay: Prodrug activation of SN-38G by enzyme, 3H-thymidine incorporation; format: cell-based; details: 100 nM SN-38G
Procedure: (§2) The prodrug activation activity of the human beta-glucuronidase variants was determined as follows. EJ human bladder cancer cells were incubated with graded concentrations (see FIGS. 3B and 3C) of human β-glucuronidase variants in RPMI (pH 6.8) containing either 10 μM HAMG or 100 nM SN-38G for 24 hours. The cells were further incubated for 24 hours in fresh medium before incorporation of ^3H-thymidine into cellular DNA was measured following the procedure described below.
(§3) Purified recombinant human beta-glucuronidase and its variants with defined concentrations were mixed with 10 μM HAMG or 100 nM SN-38G and the mixture was added to 5000 EJ human bladder cancer cells in 200 μl complete medium at pH 6.8 for 24 h. The cells were washed and incubated in fresh medium for 24 h and then pulsed for 16 h with ^3H-thymidine (1 μCi/well). The cells were harvested and the radioactivity was measured in a TopCount Microplate Scintillation Counter (Packard, Meriden, Conn.). Results are expressed as percent inhibition of ^3H-thymidine incorporation into cellular DNA in comparison to untreated cells.

[6] = system: EJ human bladder cancer cells; assay: Prodrug activation of HAMG by enzyme, 3H-thymidine incorporation; format: cell-based; details: 10 μM HAMG
Procedure: as §2, §3

[7] = Kinetic values (Km, kcat) of soluble recombinant human β-glucuronidase and variants; format: biochemical
Procedure: Recombinant His-tagged wild-type human β-glucuronidase and its variants (soluble) were produced in and purified from stable 3T3 fibroblast lines, following the method described above also the method described in Wu et al., Biotechnol Appl Biochem 40:167-172 (2004).
The pH-dependent enzyme activities of the above-mentioned recombinant human beta-glucuronidase and variants were measured in triplicate with 0.1 mM ELF97 β-D-glucuronide at 37° C. for 30 minutes at a defined pH ranging from 3-10 in a beta-glucuronidase reaction buffer (50 mM Bis-Tris, 50 mM triethanol amine, 100 mM acetic acid, 0.1% BSA). The reaction was quenched by adding an equal volume of a stop buffer (2 M Tris-HCl, 0.8 M sodium bicarbonate, pH 8). The fluorescence of ELF97 was measured in a Gemini EM microplate spectrofluorometer (Molecular Device, Sunnyvale, Calif.) at excitation/emission wavelengths of 355/555 nm. Kinetic values for human beta-glucuronidase substrate hydrolysis were determined by diluting ELF97 β-D-glucuronide (2 mM) in a pH 4.5 or pH 7.0 beta-glucuronidase reaction buffer 1:1 with defined concentrations of human beta-glucuronidase in 200 μl. Fluorescence was immediately measured under thermal control at 37° C. for 8-10 min. The measurement was repeated using the same amount of enzyme at different substrate concentrations in an optimal range. The acquired readings were converted to product concentration based on preestablished standard curves. Double reciprocal plots were used to determine Km and kcat. Kinetic assays were performed at least 3 times and mean values were calculated. The stability of recombinant human beta-glucuronidase variants was carried out by measuring their enzymatic activity at time 0 and again after incubating 5 μg purified enzymes in PBS (containing 0.5 mg/ml BSA) at 37° C. for 14 days. The enzymatic activities of the human beta-glucuronidase variants were measured in triplicate with 0.5 mM 4-methylumbelliferyl β-D-glucuronide at 37° C. for 15 minutes at pH 7.0 in β-glucuronidase reaction buffer. The reaction was terminated by adding an equal volume of a stop buffer (1 M glycine, 0.5 M sodium bicarbonate, pH 11) and the fluorescence was measured at excitation/emission wavelengths of 355/460 nm in a microplate spectrofluorometer.

[8] = Relative activity of membrane-tethered human β-glucuronidase variants on 3T3 cells by flow cytometry (FL4/FL1); format: cell-based; details: membrane-tethered enzyme, pH 7.0, substrate ELF97 β-D-glucuronide
Procedure: The 3T3 cell libraries mentioned above were screened by FACS analysis for cells that express human β-glucuronidase variants with elevated enzymatic activity. 10^7 3T3 cells expressing membrane-bound human β-glucuronidase variants were washed and suspended in 0.4 ml BSA/HBSS (5.4 mM KCl, 0.3 mM Na2HPO4, 0.4 mM KH2PO4, 4.2 mM NaHCO3, 1.3 mM CaCl2, 0.5 mM MgCl2, 0.6 mM MgSO4, 137 mM NaCl, 5.6 mM D-glucose, pH 7.4) containing 0.5% bovine serum albumin (BSA) and 20 μg/ml 7G8-FITC for 30 min at 4° C. Cells were then washed and incubated with 25, 50 or 100 μM ELF97 β-D-glucuronide at defined pH values in 50 mM Bis-Tris, 25 mM glucose, 85.6 mM NaCl, 5.4 mM KCl, 0.6 mM MgSO4, 1.3 mM CaCl2) at 37° C. for 10 min. The cells were washed with ice-cold 0.5% BSA/HBSS and suspended in 0.5% BSA/HBSS containing 5 μg/ml propidium iodide (Sigma). Cells were then sorted on a FACSVantage DiVa (Becton, Dickinson and Company, Franklin Lakes, N.J.) equipped with an Enterprise IIC argon laser for dual excitation at 488 and 351-364 nm. Dead cells (propidium iodide positive, high FL3 fluorescence) were gated out before 7G8-FITC immunofluorescence was detected at excitation/emission wavelengths of 488/515 nm (FL1) and ELF97 was detected at excitation/emission wavelengths of 351/530 nm (FL4). […] The sorted cells were cultured for 4-10 days for sequential rounds of cell sorting or RNA extraction. Flow cytometer data was analyzed using Flowjo (Tree star, Ashland, Oreg.).
Independent 3T3 clones (5×10^7) in library EP2 mentioned above were immunofluorescence stained with 7G8-FITC and reacted with ELF97 β-D-glucuronide at pH 7.0. Sixteen individual cell clones were isolated after three rounds of sorting and the human β-glucuronidase genes were sequenced. […] Table 1 below lists amino acid substitutions in five exemplary variants and their relative enzymatic activities.

[9] = 24 h after CPT-11 10 mg/kg i.v.

For `CCc1c2c(nc3ccc(OC(=O)N4CCC(N5CCCCC5)CC4)cc13)-c1cc3c(c(=O)n1C2)COC(=O)[C@]3(O)CC` [CPT-11], the IC50 [1] was about 2100 nM, the “Delay of tumor growth” value (EJ/mβG tumor xenografts) was “significantly delayed” and the “Delay of tumor growth” value (EJ tumor xenografts) was “did not significantly delay”. For the same molecule, the “Intratumoral concentrations in EJ versus EJ/mβG tumors” value ([2]; 2, 8 and 24 h) was “identical”, the “Concentration in EJ xenografts” value ([2]; 2 h after CPT-11 10 mg/kg i.v.) was 1350 ± 200 ng drug/g tumor and the “Concentration in EJ/mβG xenografts” value ([2]; 2 h after CPT-11 10 mg/kg i.v.) was 1500 ± 230 ng drug/g tumor. The “Concentration in EJ xenografts” value ([2]; 8 h after CPT-11 10 mg/kg i.v.) was 87 ± 17 ng drug/g tumor, the “Concentration in EJ/mβG xenografts” value ([2]; 8 h after CPT-11 10 mg/kg i.v.) was 77 ± 178 ng drug/g tumor and the “Concentration in EJ xenografts” value [2, 9] was 0.58 ± 0.09 ng drug/g tumor. The “Concentration in EJ/mβG xenografts” value [2, 9] was 0.63 ± 0.11 ng drug/g tumor, the IC50 (EJ/mβG cells) was about 2100 nM and the “Serum levels in mice bearing EJ versus EJ/mβG tumor” value ([3]; 2 h after CPT-11 administration) was “similar”. The “Serum concentrations in mice bearing EJ versus EJ/mβG tumor” value ([3]; 8 h or 24 h after CPT-11 administration) was “no significant differences”.

B1: S2: human beta-glucuronidase variant V159M, T545S, E595L, T599L, SEQ ID NO: 8 (protein)
chain: AAQPALQGGMLYPQESPSRECKELDGLWSFRADFSDNRRRGFEEQWYRRPLWESGPTVDMPVPSSFNDISQDWRLRHFVGWVWYEREVILPERWTQDLRTRVVLRIGSAHSYAIVWVNGVDTLEHEGGYLPFEADISNLVQMGPLPSRLRITIAINNTLTPTTLPPGTIQYLTDTSKYPKGYFVQNTYFDFFNYAGLQRSVLLYTTPTTYIDDITVTTSVEQDSGLVNYQISVKGSNLFKLEVRLLDAENKVVANGTGTQGQLKVPGVSLWWPYLMHERPAYLYSLEVQLTAQTSLGPVSDFYTLPVGIRTVAVTKSQFLINGKPFYFHGVNKHEDADIRGKGFDWPLLVKDFNLLRWLGANAFRTSHYPYAEEVMQMCDRYGIVVIDECPGVGLALPQFFNNVSLHHHMQVMEEVVRRDKNHPAVVMWSVANEPASHLESAGYYLKMVIAHTKSLDPSRPVTFVSNSNYAADKGAPYVDVICLNSYYSWYHDYGHLELIQLQLATQFENWYKKYQKPIIQSEYGAESIAGFHQDPPLMFTEEYQKSLLEQYHLGLDQKRRKYVVGELIWNFADFMTLQSPLRVLGNKKGIFTRQRQPKSAAFLLRERYWKIANETRYPHSVAKSQCLENSPFTSVD
modifications: Laboratory generated variant, S2, based upon the human beta-glucuronidase
For B1, the “Enzymatic activity compared with wild-type hβG” value [4] was “significantly greater”, the “Fold improvement in prodrug activation over wild type (SN-38G)” value ([5]; pH 6.8) was 11 fold and the “EC50 of enzyme for killing of EJ cells with SN-38G” value ([5]; pH 6.8, 24 h) was 0.0084 µg/mL. The “Fold more effective than wild type (HAMG activation)” value ([6]; pH 6.8) was 9 fold, the “EC50 of enzyme for killing of EJ cells with HAMG” value ([6]; pH 6.8, 24 h) was 2.7 µg/mL and the Km ([7]; pH 4.5, 37° C.) was 8.1 ± 0.8 µM. The kcat ([7]; pH 4.5, 37° C.) was 107 ± 7 s⁻¹, the Km ([7]; pH 7.0, 37° C.) was 35 ± 3 µM and the kcat ([7]; pH 7.0, 37° C.) was 42 ± 4 s⁻¹. For the same molecule, the “kcat/Km at pH 7.0, fold greater than kcat/Km of wild type at pH 4.5” value ([7]; variant at pH 7.0 vs wild type at pH 4.5) was “about 2 fold” and the “Relative activity (FL4/FL1 normalized to wild-type human β-glucuronidase)” value [8] was 65.
